Measured values reported in the Kinase Knowledgebase extract (Sharma et al. 2016).

These molecules were tested against EGFR (murine) (UniProt P00533) (assay: not given). Details: nih3t3/c7.
Chain of EGFR (murine) (P00533 whole entry, looked up): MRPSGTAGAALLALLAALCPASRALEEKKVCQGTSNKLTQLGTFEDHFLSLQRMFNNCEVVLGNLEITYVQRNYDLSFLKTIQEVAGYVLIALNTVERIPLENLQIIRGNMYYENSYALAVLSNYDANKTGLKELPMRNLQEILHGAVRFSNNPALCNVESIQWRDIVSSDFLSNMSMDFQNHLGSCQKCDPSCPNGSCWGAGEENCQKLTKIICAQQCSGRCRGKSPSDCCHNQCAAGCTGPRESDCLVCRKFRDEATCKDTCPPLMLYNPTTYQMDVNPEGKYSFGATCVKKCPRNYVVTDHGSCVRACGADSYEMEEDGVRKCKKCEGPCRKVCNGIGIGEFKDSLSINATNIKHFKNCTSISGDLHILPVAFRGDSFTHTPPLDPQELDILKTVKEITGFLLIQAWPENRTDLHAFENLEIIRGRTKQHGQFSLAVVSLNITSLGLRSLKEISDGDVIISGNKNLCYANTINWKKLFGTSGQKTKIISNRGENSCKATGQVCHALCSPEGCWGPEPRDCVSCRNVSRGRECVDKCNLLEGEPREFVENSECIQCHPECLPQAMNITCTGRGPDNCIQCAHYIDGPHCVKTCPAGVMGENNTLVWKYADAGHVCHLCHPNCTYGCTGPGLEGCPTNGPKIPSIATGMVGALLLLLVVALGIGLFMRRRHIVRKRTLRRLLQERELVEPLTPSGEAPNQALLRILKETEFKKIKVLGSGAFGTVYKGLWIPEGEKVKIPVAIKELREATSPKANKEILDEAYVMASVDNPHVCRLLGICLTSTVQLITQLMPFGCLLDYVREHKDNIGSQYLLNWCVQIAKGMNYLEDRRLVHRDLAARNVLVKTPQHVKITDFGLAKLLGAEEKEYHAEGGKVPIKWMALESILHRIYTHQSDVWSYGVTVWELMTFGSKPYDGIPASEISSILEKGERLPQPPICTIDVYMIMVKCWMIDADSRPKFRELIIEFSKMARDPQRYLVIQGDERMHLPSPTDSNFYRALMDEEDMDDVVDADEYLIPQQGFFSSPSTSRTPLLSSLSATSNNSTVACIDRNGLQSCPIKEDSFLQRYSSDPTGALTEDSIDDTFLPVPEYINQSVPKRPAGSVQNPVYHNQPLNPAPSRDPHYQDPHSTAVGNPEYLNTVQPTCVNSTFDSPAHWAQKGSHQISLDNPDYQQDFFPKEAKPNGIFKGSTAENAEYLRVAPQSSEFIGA

Q: `Cc1cc(C(=O)O)[nH]c1/C=C1\C(=O)Nc2ccc(Cl)cc21` was tested. Which IC50 did it give?
A: > 100 µM

Q: With `Cc1cc(C(=O)O)[nH]c1/C=C1\C(=O)Nc2ccccc21` as the molecule, how does the IC50 read?
A: > 100 µM

Q: `CCN(CC)CCNC(=O)c1ccc(/C=C2\C(=O)Nc3cc(-c4ccccc4)ccc32)[nH]1` was tested. Which IC50 did it give?
A: > 100 µM

Q: With `COC(=O)c1cc(C)c(/C=C2\C(=O)Nc3ccccc32)[nH]1` as the molecule, how does the IC50 read?
A: > 100 µM

Q: For `CCN(CC)CCN(C)C(=O)c1ccc(/C=C2\C(=O)Nc3cc(-c4ccccc4)ccc32)[nH]1`, which IC50 is on record?
A: > 100 µM

Q: For `Cc1cc(C(=O)O)[nH]c1/C=C1\C(=O)N(C)c2ccccc21`, which IC50 is on record?
A: > 100 µM

Q: With `CCN(CC)CCNC(=O)c1c(C)[nH]c(/C=C2\C(=O)Nc3cc(-c4ccccc4)ccc32)c1C` as the molecule, how does the IC50 read?
A: > 100 µM

Q: For `CCN(CC)CCNC(=O)c1c(C)[nH]c(/C=C2\C(=O)Nc3cc(-c4cccnc4)ccc32)c1C`, which IC50 is on record?
A: > 100 µM

Q: Which IC50 does the source give for `Cc1[nH]c(/C=C2\C(=O)Nc3cc(-c4cccnc4)ccc32)c(C)c1C(=O)NCCN1CCCC1` here?
A: > 100 µM

Q: How did the IC50 turn out when `Cc1[nH]c(/C=C2\C(=O)Nc3ccc(-c4ccccc4)cc32)c(C)c1C(=O)NCCCn1ccnc1` was run?
A: > 100 µM

Q: With `Cc1[nH]c(/C=C2\C(=O)Nc3ccc(Br)cc32)c(C)c1C(=O)NCCN1CCCC1` as the molecule, how does the IC50 read?
A: > 100 µM

Q: How did the IC50 turn out when `Cc1[nH]c(/C=C2\C(=O)Nc3cc(-c4ccccc4)ccc32)c(C)c1C(=O)NCCCn1ccnc1` was run?
A: > 100 µM

Q: `Cc1[nH]c(/C=C2\C(=O)Nc3cc(-c4ccccc4)ccc32)c(C)c1C(=O)NCCN1CCCC1` was tested. Which IC50 did it give?
A: > 100 µM

Q: How did the IC50 turn out when `CCOC(=O)c1c(C)[nH]c(/C=C2\C(=O)Nc3ccc(Br)cc32)c1-c1ccccc1` was run?
A: > 100 µM

Q: With `CCN(CC)CCNC(=O)c1c(C)[nH]c(/C=C2\C(=O)Nc3cc(-c4cc(Cl)cc(Cl)c4)ccc32)c1C` as the molecule, how does the IC50 read?
A: > 100 µM

Q: Which IC50 does the source give for `Cc1[nH]c(/C=C2\C(=O)Nc3ccc(Br)cc32)c(C)c1C(=O)NCCCn1ccnc1` here?
A: > 100 µM

Q: Which IC50 does the source give for `CCOC(=O)c1cc(C)c(/C=C2\C(=O)Nc3ccc(Cl)cc32)[nH]1` here?
A: > 100 µM

These molecules were tested against CDK2 (human) (UniProt P24941) (assay: Enzyme Assay). Details: not given.

Q: With `CCN(CC)CCCNC(=O)c1c(C)[nH]c(/C=C2\C(=O)Nc3ccc(Br)cc32)c1-c1ccccc1` as the molecule, how does the IC50 read?
A: > 20 µM

These molecules were tested against EGFR (human) (UniProt P00533) (assay: not given). Details: not given.
Chain of EGFR (human) (P00533 whole entry, looked up): as above

Q: For `CCN(CC)CCCNC(=O)c1[nH]c(/C=C2\C(=O)Nc3cc(OC)ccc32)cc1C`, which IC50 is on record?
A: > 100 µM

Q: With `CNS(=O)(=O)c1ccc2c(c1)/C(=C/c1[nH]cc(C(=O)O)c1C)C(=O)N2` as the molecule, how does the IC50 read?
A: > 100 µM

Q: `CCN(CC)CCCNC(=O)c1c(C)[nH]c(/C=C2\C(=O)Nc3cccc(C(=O)Nc4ccc(OC)c(Cl)c4)c32)c1C` was tested. Which IC50 did it give?
A: > 100 µM

Q: `Cc1c(C(=O)NCCCN2CCOCC2)[nH]c(/C=C2\C(=O)Nc3ccc(Br)cc32)c1C(=O)c1ccccc1` was tested. Which IC50 did it give?
A: > 100 µM

Q: Which IC50 does the source give for `COc1ccccc1-c1ccc2c(c1)NC(=O)/C2=C\c1[nH]c(C)c(C(=O)NCCN2CCCC2)c1-c1ccccc1` here?
A: > 100 µM

Q: How did the IC50 turn out when `CCOC(=O)CNC(=O)c1c[nH]c(/C=C2\C(=O)Nc3ccc(S(=O)(=O)NC)c(C)c32)c1C` was run?
A: > 100 µM

Q: Which IC50 does the source give for `CCOC(=O)CNC(=O)c1c[nH]c(/C=C2\C(=O)Nc3ccc(S(=O)(=O)NC)cc32)c1C` here?
A: > 100 µM

Q: `CCN(CC)CCNC(=O)c1c(C)[nH]c(/C=C2\C(=O)Nc3ccc(S(=O)(=O)N(C)C)cc32)c1C` was tested. Which IC50 did it give?
A: > 100 µM

Q: For `Cc1[nH]c(/C=C2\C(=O)Nc3ccc(Cl)cc32)c(C)c1C(=O)NCCN(C)C`, which IC50 is on record?
A: > 100 µM

Q: For `Cc1[nH]c(/C=C2\C(=O)Nc3ccc(-c4ccccc4)cc32)c(C)c1C(=O)NCCCn1ccnc1`, which IC50 is on record?
A: > 100 µM

Q: For `COc1ccccc1-c1ccc2c(c1)NC(=O)/C2=C\c1[nH]c(C)c(C(=O)NCCN(C)C)c1-c1ccccc1`, which IC50 is on record?
A: > 100 µM

Q: `CNS(=O)(=O)c1ccc2c(c1)/C(=C/c1[nH]cc(C(=O)NCC(=O)O)c1C)C(=O)N2` was tested. Which IC50 did it give?
A: > 100 µM

Q: Which IC50 does the source give for `CCN(CC)CCCNC(=O)c1c(C)[nH]c(/C=C2\C(=O)Nc3cc(-c4ccccc4)ccc32)c1C` here?
A: > 100 µM

Q: Which IC50 does the source give for `Cc1[nH]c(/C=C2\C(=O)Nc3cc(-c4ccccc4)ccc32)c(C)c1C(=O)NCCN(C)C` here?
A: > 100 µM

Q: With `CCN(CC)CCNC(=O)c1c(C)[nH]c(/C=C2\C(=O)Nc3cc(-c4cc(Cl)cc(Cl)c4)ccc32)c1C` as the molecule, how does the IC50 read?
A: > 100 µM

Q: Which IC50 does the source give for `CCN(CC)CCCNC(=O)c1[nH]c(/C=C2\C(=O)Nc3ccc(OC)cc32)cc1C` here?
A: > 100 µM

Q: `CCN(CC)CCNC(=O)c1c(C(C)C)[nH]c(/C=C2\C(=O)Nc3ccc(Br)cc32)c1C(C)C` was tested. Which IC50 did it give?
A: > 100 µM

Q: With `Cc1[nH]c(/C=C2\C(=O)Nc3ccc(S(=O)(=O)N(C)C)cc32)c(C)c1C(=O)NCCN1CCCC1` as the molecule, how does the IC50 read?
A: > 100 µM
